The assay concerns Vaccinia virus. In words: Antiviral activity against vaccinia virus Copenhagen measured as cytopathogenicity in HFF cells. In kind it is functional, organism-based. The note with it: Orthopoxvirus vaccinia. In general terms: Damage to the host cells serves as the signal in cytopathic effect assays.

Structures are written as SMILES.

We go through twelve compounds from ChEMBL document CHEMBL1148520, “5-(Dimethoxymethyl)-2'-deoxyuridine: a novel gem diether nucleoside with anti-orthopoxvirus activity” (J Med Chem, 2006).

`COC(OC)c1cnc(O)nc1O` showed an EC50 above 300 µM.

`CC(=O)OC[C@H]1OC(n2cc(C=O)c(=O)[nH]c2=O)C[C@@H]1OC(C)=O` (some centres not stated) displayed an EC50 above 300 µM. To `COC(OC)c1cn(C2C[C@H](OC(C)=O)[C@@H](COC(C)=O)O2)c(=O)[nH]c1=O` (some centres not stated) belongs 296 µM; to `CC(=O)OC[C@H]1OC(n2cc(C3OCCCO3)c(=O)[nH]c2=O)C[C@@H]1OC(C)=O` (some centres not stated), above 300 µM; to `O=c1[nH]c(=O)n(C2CC(O)[C@@H](CO)O2)cc1C1OCCCO1` (single isomer, unassigned), above 300 µM. `O=Cc1cn([C@H]2C[C@H](O)[C@@H](CO)O2)c(=O)[nH]c1=O`: the EC50 was above 300 µM.

`CCOC(OCC)c1cn(C2C[C@H](OC(C)=O)[C@@H](COC(C)=O)O2)c(=O)[nH]c1=O` (some centres not stated): the EC50 worked out at 38 µM. To `Nc1ccn(C[C@@H](CO)OCP(=O)(O)O)c(=O)n1` [CIDOFOVIR] belongs 6.9 µM; to `O=c1[nH]c(=O)n(C2CC(O)[C@@H](CO)O2)cc1C1OCCO1` (single isomer, unassigned), above 300 µM; to `CC(=O)OC[C@H]1OC(n2cc(C3OCCO3)c(=O)[nH]c2=O)C[C@@H]1OC(C)=O` (some centres not stated), above 300 µM. `COC(OC)c1cn(C2C[C@H](O)[C@@H](CO)O2)c(=O)[nH]c1=O` (some centres not stated): the EC50 was 8.4 µM. To `CCOC(OCC)c1cn(C2C[C@H](O)[C@@H](CO)O2)c(=O)[nH]c1=O` (some centres not stated) belongs above 60 µM.

The term EC50 denotes the concentration at which the effect is half-maximal.
